Data: ChEMBL document CHEMBL4665629, “An optimised series of substituted N-phenylpyrrolamides as DNA gyrase B inhibitors” (Eur J Med Chem, 2019)

Key:
Escherichia coli [1] = assay: Antibacterial activity against Escherichia coli ATCC 25922 assessed as bacterial growth inhibition at 50 uM incubated for 24 hrs by CLSI protocol based broth microdilution assay relative to control; assay type: functional
Staphylococcus aureus = assay: Antibacterial activity against Staphylococcus aureus ATCC 29213 assessed as bacterial growth inhibition at 50 uM incubated for 24 hrs by CLSI protocol based broth microdilution assay relative to control; assay type: functional
Enterococcus faecium = assay: Antibacterial activity against Enterococcus faecium ATCC 35667 assessed as bacterial growth inhibition at 50 uM incubated for 24 hrs by CLSI protocol based broth microdilution assay relative to control; assay type: functional
Klebsiella pneumoniae = assay: Antibacterial activity against Klebsiella pneumoniae ATCC 700603 assessed as bacterial growth inhibition at 50 uM incubated for 24 hrs by CLSI protocol based broth microdilution assay relative to control; assay type: functional
Escherichia coli [2] = assay: Antibacterial activity against outer membrane impaired Escherichia coli JD17464 harboring lpxC mutant assessed as bacterial growth inhibition at 50 uM incubated for 24 hrs by CLSI protocol based broth microdilution assay relative to control; assay type: functional
Klebsiella aerogenes = assay: Antibacterial activity against Enterobacter aerogenes ATCC 13408 assessed as bacterial growth inhibition at 50 uM incubated for 24 hrs by CLSI protocol based broth microdilution assay relative to control; assay type: functional
Acinetobacter baumannii = assay: Antibacterial activity against Acinetobacter baumannii ATCC 19606 assessed as bacterial growth inhibition at 50 uM incubated for 24 hrs by CLSI protocol based broth microdilution assay relative to control; assay type: functional; details: ATCC 19606 = CIP 70.34 = JCM 6841
Enterococcus faecalis = assay: Antibacterial activity against Enterococcus faecalis ATCC 29212 assessed as bacterial growth inhibition at 50 uM incubated for 24 hrs by CLSI protocol based broth microdilution assay relative to control; assay type: functional
Pseudomonas aeruginosa = assay: Antibacterial activity against Pseudomonas aeruginosa ATCC 27853 assessed as bacterial growth inhibition at 50 uM incubated for 24 hrs by CLSI protocol based broth microdilution assay relative to control; assay type: functional
Escherichia coli [3] = assay: Antibacterial activity against efflux pump d effect ive Escherichia coli JW5503 harbouring tolC mutant assessed as bacterial growth inhibition at 50 uM incubated for 24 hrs by CLSI protocol based broth microdilution assay relative to control; assay type: functional
[4] = molecular target: DNA gyrase (Escherichia coli) (UniProt P0AES6+P0AES4); assay: Inhibition of Escherichia coli DNA gyrase assessed as residual activity at 1 uM using biotinylated oligonucleotide as substrate incubated for 30 mins in presence of ATP by fluorescence-based microplate reader assay relative to control; assay type: protein-complex assay
DNA gyrase = DNA gyrase (Escherichia coli, UniProt P0AES4+P0AES6); assay: Inhibition of Escherichia coli DNA gyrase using biotinylated oligonucleotide as substrate incubated for 30 mins in presence of ATP by fluorescence-based microplate reader assay; assay type: protein-complex assay

Compound | inhibition at 50 µM (Escherichia coli [1]) | inhibition at 50 µM (Staphylococcus aureus) | inhibition at 50 µM (Enterococcus faecium) | inhibition at 50 µM (Klebsiella pneumoniae) | inhibition at 50 µM (Escherichia coli [2]) | inhibition at 50 µM (Klebsiella aerogenes) | inhibition at 50 µM (Acinetobacter baumannii) | inhibition at 50 µM (Enterococcus faecalis) | inhibition at 50 µM (Pseudomonas aeruginosa) | inhibition at 50 µM (Escherichia coli [3]) | Activity [4] | IC50 (DNA gyrase)
Cc1[nH]c(C(=O)Nc2ccc(S(N)(=O)=O)cc2)c(Cl)c1Cl | 13% | 12% | 54% | 4% | 4% | 1% | 6% | 6% | -4% | 2% | 82% | 
CCOC(=O)C(NC(=O)c1ccc(NC(=O)c2cc(Br)c(Br)[nH]2)cc1)C(=O)OCC | 9% | 12% | -8% | 1% | 2% | 1% | 3% | 8% | 5% | -8% | 78% | 
Cc1[nH]c(C(=O)Nc2ccc(S(=O)(=O)NCC(=O)O)cc2)c(Cl)c1Cl | 7% | 4% | 3% | 7% | 1% | 7% | 5% | 9% | -4% | 6% | 87% | 
COC(=O)[C@@H](C)NC(=O)c1ccc(NC(=O)c2[nH]c(C)c(Cl)c2Cl)c(OC2CCN(C(=O)OC(C)(C)C)CC2)c1 | 18% | 30% | 52% | 2% | 44% | 22% | 36% |  | 33% | 40% | 94% | 
COC(=O)CNC(=O)c1ccc(NC(=O)c2[nH]c(C)c(Cl)c2Cl)c(O[C@H]2CCN(C(=O)OC(C)(C)C)C2)c1 | 10% | 12% | 23% | 8% | 30% | 7% | 9% |  | 12% | -4% | 93% | 
Cc1[nH]c(C(=O)Nc2ccc(S(=O)(=O)Nc3nccs3)cc2)c(Cl)c1Cl | 13% | -2% | 43% | 1% | 17% | -2% | 10% | 23% | 10% | 5% | 100% | 
COC(=O)CNC(=O)c1ccc(NC(=O)c2[nH]c(C)c(Cl)c2Cl)c(OC2CCN(C(=O)OC(C)(C)C)CC2)c1 | 26% | 8% | -19% | -2% | 31% | 5% | 15% |  | -18% | 7% | 100% | 
CCOC(=O)C(NC(=O)c1ccc(NC(=O)c2[nH]c(C)c(Cl)c2Cl)cc1)C(=O)OCC | 13% | 32% | 11% | 18% | 8% | 11% | 9% | 14% | -6% | 8% |  | 7.7 µM
COC(=O)CNS(=O)(=O)c1ccc(NC(=O)c2[nH]c(C)c(Cl)c2Cl)cc1 | 18% | 12% | 34% | 1% | 4% | -4% | 9% | 8% | 5% | -1% | 87% | 
COC(=O)[C@@H](C)NC(=O)c1ccc(NC(=O)c2[nH]c(C)c(Cl)c2Cl)c(OC(C)C)c1 | 12% | 29% | -15% | 16% | 27% | 12% | 8% | -41% | 5% | 11% | 87% | 
